# Measured values taken from ChEMBL document CHEMBL6103593, “Design of Selective BRD4 Inhibitors for the Treatment of Autosomal Dominant Polycystic Kidney Disease” (J Med Chem, 2025).
# Key:
# [1] = target: Histone acetyltransferase p300 (Homo sapiens, UniProt Q09472); experiment: Inhibition of EP300 (1039 to 1161 residues) (unknown origin) extracted from Escherichia coli […] codon plus RIL cells incubated for 4 hrs by fluorescence anisotropy
# [2] = target: T1, Bromodomain-containing protein 2 (Homo sapiens, UniProt P25440); experiment: Inhibition of BRD2 bromodomain 2 (348 to 455 residues) (unknown origin) extracted from Escherichia coli […] codon plus RIL cells incubated for 4 hrs by fluorescence anisotropy
# [3] = target: T1, Bromodomain-containing protein 2; experiment: Inhibition of BRD2 bromodomain 1 (67 to 200 residues) (unknown origin) extracted from Escherichia coli […] codon plus RIL cells incubated for 4 hrs by fluorescence anisotropy
# [4] = target: T2, Bromodomain-containing protein 4 (Homo sapiens, UniProt O60885); experiment: Inhibition of BRD4 bromodomain 1 (44 to 168 residues) (unknown origin) extracted from Escherichia coli […] codon plus RIL cells incubated for 4 hrs by fluorescence anisotropy
# [5] = target: T2, Bromodomain-containing protein 4; experiment: Inhibition of BRD4 bromodomain 2 (332 to 460 residues) (unknown origin) extracted from Escherichia coli […] codon plus RIL cells incubated for 4 hrs by fluorescence anisotropy
# Histone acetyltransferase p300, sequence (Q09472 whole entry, the tested form may be a part): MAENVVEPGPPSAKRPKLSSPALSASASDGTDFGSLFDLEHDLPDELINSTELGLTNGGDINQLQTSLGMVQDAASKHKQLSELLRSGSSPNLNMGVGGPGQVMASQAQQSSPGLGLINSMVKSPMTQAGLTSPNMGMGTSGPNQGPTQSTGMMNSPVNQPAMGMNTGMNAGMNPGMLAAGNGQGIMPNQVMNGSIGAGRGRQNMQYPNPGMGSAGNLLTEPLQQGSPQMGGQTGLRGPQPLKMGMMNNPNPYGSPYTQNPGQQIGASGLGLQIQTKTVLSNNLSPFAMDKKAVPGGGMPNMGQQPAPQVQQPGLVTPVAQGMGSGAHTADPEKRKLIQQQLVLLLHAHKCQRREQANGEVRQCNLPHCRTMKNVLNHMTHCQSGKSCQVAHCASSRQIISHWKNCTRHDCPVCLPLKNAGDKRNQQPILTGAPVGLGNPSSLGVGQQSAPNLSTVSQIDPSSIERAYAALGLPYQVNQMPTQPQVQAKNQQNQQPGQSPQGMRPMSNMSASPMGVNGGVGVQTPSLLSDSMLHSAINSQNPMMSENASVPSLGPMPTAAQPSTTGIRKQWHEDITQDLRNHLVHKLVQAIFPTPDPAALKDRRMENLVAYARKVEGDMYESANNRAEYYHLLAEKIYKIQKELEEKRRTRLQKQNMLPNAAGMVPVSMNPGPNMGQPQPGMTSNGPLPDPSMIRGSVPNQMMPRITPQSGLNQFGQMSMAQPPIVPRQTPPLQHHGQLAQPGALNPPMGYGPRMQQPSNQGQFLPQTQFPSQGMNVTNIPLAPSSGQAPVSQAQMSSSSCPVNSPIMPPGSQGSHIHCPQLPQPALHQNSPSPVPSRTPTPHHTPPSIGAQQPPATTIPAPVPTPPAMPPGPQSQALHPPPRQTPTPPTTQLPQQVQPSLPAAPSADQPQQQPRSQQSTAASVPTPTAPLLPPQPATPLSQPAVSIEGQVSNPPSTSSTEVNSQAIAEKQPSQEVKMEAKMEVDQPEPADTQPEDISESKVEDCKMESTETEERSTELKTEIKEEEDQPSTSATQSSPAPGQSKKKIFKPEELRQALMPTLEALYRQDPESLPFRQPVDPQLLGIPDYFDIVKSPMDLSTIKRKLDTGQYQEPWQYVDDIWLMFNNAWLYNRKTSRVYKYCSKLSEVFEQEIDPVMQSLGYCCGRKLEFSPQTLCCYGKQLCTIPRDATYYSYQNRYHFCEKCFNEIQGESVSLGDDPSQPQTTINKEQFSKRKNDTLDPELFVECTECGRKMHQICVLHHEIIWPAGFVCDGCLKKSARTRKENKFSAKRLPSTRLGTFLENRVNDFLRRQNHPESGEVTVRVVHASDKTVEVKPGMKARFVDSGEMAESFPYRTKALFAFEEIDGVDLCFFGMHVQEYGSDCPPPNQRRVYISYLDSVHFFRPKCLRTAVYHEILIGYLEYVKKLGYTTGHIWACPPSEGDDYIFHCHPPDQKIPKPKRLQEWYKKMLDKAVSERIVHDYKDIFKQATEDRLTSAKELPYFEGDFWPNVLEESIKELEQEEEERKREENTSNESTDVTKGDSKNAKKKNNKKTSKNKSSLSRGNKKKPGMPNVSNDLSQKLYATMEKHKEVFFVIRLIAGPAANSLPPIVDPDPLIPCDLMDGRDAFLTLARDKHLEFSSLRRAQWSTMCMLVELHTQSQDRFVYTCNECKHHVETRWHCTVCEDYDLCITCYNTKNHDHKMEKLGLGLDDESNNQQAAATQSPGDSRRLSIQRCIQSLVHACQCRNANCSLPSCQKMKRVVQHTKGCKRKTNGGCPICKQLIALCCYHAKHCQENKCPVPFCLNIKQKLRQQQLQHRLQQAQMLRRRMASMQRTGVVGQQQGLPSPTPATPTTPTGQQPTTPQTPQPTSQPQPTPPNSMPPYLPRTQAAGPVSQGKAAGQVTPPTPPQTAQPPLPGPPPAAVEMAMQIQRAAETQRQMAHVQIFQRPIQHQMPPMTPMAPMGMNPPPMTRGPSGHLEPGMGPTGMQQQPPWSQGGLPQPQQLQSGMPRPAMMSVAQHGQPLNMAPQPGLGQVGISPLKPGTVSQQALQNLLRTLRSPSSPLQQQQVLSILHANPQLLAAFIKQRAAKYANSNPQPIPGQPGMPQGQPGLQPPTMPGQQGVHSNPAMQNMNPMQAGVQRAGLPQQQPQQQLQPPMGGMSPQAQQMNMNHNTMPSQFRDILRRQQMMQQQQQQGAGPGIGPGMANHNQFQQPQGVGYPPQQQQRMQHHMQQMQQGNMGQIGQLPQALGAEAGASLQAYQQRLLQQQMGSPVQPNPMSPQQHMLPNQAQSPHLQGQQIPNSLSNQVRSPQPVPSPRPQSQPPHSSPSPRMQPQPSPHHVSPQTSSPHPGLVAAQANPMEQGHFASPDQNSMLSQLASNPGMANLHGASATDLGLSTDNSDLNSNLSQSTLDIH
# T1 sequence (P25440 whole entry, the tested form may be a part): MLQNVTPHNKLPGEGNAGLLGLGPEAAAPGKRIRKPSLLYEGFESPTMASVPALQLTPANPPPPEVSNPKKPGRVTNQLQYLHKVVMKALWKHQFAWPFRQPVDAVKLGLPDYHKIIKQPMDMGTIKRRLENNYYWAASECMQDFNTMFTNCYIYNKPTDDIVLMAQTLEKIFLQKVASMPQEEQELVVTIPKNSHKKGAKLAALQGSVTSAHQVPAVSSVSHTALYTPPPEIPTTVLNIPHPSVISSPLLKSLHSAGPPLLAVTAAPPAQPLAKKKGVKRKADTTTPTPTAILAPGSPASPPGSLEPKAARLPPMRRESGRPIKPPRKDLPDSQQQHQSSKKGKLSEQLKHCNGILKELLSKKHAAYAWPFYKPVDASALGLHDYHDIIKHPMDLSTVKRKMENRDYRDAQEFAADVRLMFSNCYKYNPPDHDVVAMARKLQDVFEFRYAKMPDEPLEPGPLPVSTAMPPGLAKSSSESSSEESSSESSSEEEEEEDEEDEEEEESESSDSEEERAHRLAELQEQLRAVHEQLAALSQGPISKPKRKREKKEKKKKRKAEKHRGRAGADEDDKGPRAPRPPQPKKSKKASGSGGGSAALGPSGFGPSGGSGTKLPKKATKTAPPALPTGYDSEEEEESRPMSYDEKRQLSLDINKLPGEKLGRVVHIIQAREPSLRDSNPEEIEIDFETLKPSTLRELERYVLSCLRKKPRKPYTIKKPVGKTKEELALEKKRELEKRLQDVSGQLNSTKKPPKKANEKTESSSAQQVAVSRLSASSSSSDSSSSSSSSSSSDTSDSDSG
IC50 [1],IC50 [2],IC50 [3],IC50 [4],IC50 [5],SMILES
> 1000 nM,302 nM,29.3 nM,,,CCc1cc(Nc2nn(C)c3ccccc23)nc(Nc2ccc3c(c2)N(C(C)C)[C@H](C)C(=O)N3C)n1
,,,504 nM,2070 nM,CCc1cc(Nc2cccc(Cl)c2)nc(Nc2ccc3c(c2)N(C(C)C)[C@H](C)C(=O)N3C)n1
> 1000 nM,233 nM,31.8 nM,,,CC(C)N1c2cc(Nc3nccc(Nc4nn(C)c5ccccc45)n3)ccc2N(C)C(=O)[C@H]1C
> 1000 nM,291 nM,50.5 nM,,,Cc1cc(Nc2nn(C)c3ccccc23)nc(Nc2ccc3c(c2)N(C(C)C)[C@H](C)C(=O)N3C)n1
